{"source": "patent US6071905A", "about": "“Biologically active substance on the basis of tetracyclic nitrogen heterocycles of pyrimidine row” (Natural Drug Sciences, LLC, priority 1998, dated 2000)"}
{"test_system": "M. tuberculosis 16R", "experiment": "action on pathogenic mycobacteria from patients, Lowenstein-Jensen medium, M. tuberculosis 16R", "format": "cell-based", "settings": "title: concentration of compound 10.0 g/l; 30 days; resistant to control compounds"}
{"compound": "CC[C@@H](CO)NCCN[C@@H](CC)CO", "note": "[Ethambutol, reference compound]", "antimicrobial action, M. tuberculosis 16R": "growth"}
{"compound": "NNC(=O)c1ccncc1", "note": "[Isoniazid, hydrazide of izonicotinic acid, reference compound]", "antimicrobial action, M. tuberculosis 16R": "growth"}
{"compound": "CO[C@H]1/C=C/O[C@@]2(C)Oc3c(C)c(O)c4c(O)c(cc(O)c4c3C2=O)NC(=O)/C(C)=C\\C=C\\[C@H](C)[C@H](O)[C@@H](C)[C@@H](O)[C@@H](C)[C@H](OC(C)=O)[C@@H]1C", "note": "[Rifamycin, reference compound]", "antimicrobial action, M. tuberculosis 16R": "growth"}
{"compound": "[H]/N=C(/N)N[C@H]1[C@H](O)[C@@H](O)[C@H](O[C@@H]2O[C@@H](C)[C@](O)(C=O)[C@H]2O[C@@H]2O[C@@H](CO)[C@H](O)[C@@H](O)[C@@H]2NC)[C@@H](N/C(N)=N\\[H])[C@@H]1O", "note": "[Streptomycin, reference compound]", "antimicrobial action, M. tuberculosis 16R": "growth"}
